Test results as given in US20050209157A1, “Short bioactive peptides and methods for their use” (priority 2001, published 2005).
Converted amounts (≈) assume the structure as drawn. Read-outs that look alike come from different tables or passages of the source. No end group written: not given here.

Assays:
in vitro [1] = type: cell-based, human; settings: human, human red blood cells
Procedure: This hemolytic assay is based upon that presented in Journal of Peptide Research 53: 82-90 (1999). […] All procedures were performed according to safety protocols pertaining to the handling and disposal of human body fluids.
Red blood cells (RBCs) were washed three times with PBS (35 mM phosphate buffer 0.15 M NaCl, pH 7.0). RBCs suspended in PBS (0.4% (v/v); about 10 ml per 15 peptides) were prepared. Suspensions (100 μl) were aliquoted to each sample and control tube. Serially diluted peptide solutions (100 μl) were pipetted into the sample tubes. Negative control tubes contained 100 μl PBS; positive control tubes contained 100 μl 1% Triton-X100 detergent. All tubes were incubated for 1 hour at 37° C. The tubes were removed from the incubator and centrifuged at 1000 g for 5 minutes. Supernatant (100 μl) was pipetted to a 96-well polyvinyl chloride plate. The absorbance at 414 nm (A414) was measured, and used to calculate the percent hemolysis according to the following formula. [formula]

in vitro [2] = settings: human, WI38 normal lung fibroblast cells
MCF7 = experiment: Anti-cancer assay, MTT, LD50; type: cell-based; settings: MCF7 breast adenocarcinoma line, MTT, 24 hours with peptide
Source text: (§1) Numbers are LD50 values (μg/mL).

BMKC = experiment: Anti-cancer assay, MTT, LD50; type: cell-based; settings: BMKC cloned melanoma line, 24 hours with peptide
Source text: as §1

H1299 = experiment: Anti-cancer assay, MTT, LD50; type: cell-based; settings: 24 hours with peptide, lung large cell carcinoma
Source text: as §1

HeLaS3 = experiment: Anti-cancer assay, MTT, LD50; type: cell-based; settings: 24 hours with peptide, cervical carcinoma
Source text: as §1

PC3 = experiment: Anti-cancer assay, MTT, LD50; type: cell-based; settings: 24 hours with peptide, prostate adenocarcinoma
Source text: as §1

SW480 = experiment: Anti-cancer assay, MTT, LD50; type: cell-based; settings: SW480 colon adenocarcinoma line, 24 hours with peptide
Source text: as §1

WI38 = settings: MTT, 24 hours with peptide; for WI38 LD50: normal fibroblast line
[3] = pH 7, hemolytic assay, concentration at 50% hemolysis, 1 hour at 37° C., read-out: LD50
[4] = pH 7, Table 26, valine substitution, read-out: Hemolysis RBC LD50
[5] = WI-38 LD50, Table 26, valine substitution
[6] = LD50 WI38, WI38 normal lung fibroblast line, MTT, 24 hours with peptide

## GIGKFLHSAKKFGKAFVGGIMNS-NH2 [P16, reference compound]
In vitro [1]; [3]
  HC50 at 1 h: 550 µg/mL

## CC(C)C[C@H](NC(=O)[C@H](C)NC(=O)[C@H](CC(C)C)NC(=O)[C@H](C)NC(=O)[C@H](CC(C)C)NC(=O)[C@H](CCCCN)NC(=O)[C@H](C)NC(=O)[C@H](CC(C)C)NC(=O)[C@H](CCCCN)NC(=O)[C@H](CCCCN)NC(=O)[C@H](C)NC(=O)[C@H](CC(C)C)NC(=O)[C@H](CCCCN)NC(=O)[C@H](C)NC(=O)[C@H](CC(C)C)NC(=O)[C@H](CCCCN)NC(=O)[C@H](CCCCN)NC(=O)[C@H](C)NC(=O)[C@@H](N)C(C)C)C(N)=O [compound 504]
In vitro [1]; [4]
  HC50 at 1 h: 70 µg/mL
In vitro [2]; [5]
  CC50 at 24 h: 110 µg/mL (≈ 55.3 µM)

## VAKKLAKLAKKLLAL-NH2 [FLAK43 AM V]
MCF7
  LD50 MCF7: 86 µg/mL
In vitro [2]; [6]
  CC50 at 24 h: 85 µg/mL

## VAKLLAKALKKLL-NH2 [FLAK50D V]
MCF7
  LD50 MCF7: 45 µg/mL
In vitro [2]; [6]
  CC50 at 24 h: 75 µg/mL

## VALALKALKKLLKKLKKLAKKAL-NH2 [03 AMV]
MCF7
  LD50 MCF7: 62 µg/mL
In vitro [2]; [6]
  CC50 at 24 h: 77 µg/mL

## VALALKALKKLAKKLKKLAKKAL-NH2 [compound 509]
In vitro [1]; [4]
  HC50 at 1 h: 40 µg/mL
In vitro [2]; [5]
  CC50 at 24 h: 95 µg/mL

## VAKKLAKLAKKLLAL-NH2 [P505, VAKKLAKLAKKLLAL-NH2]
In vitro [1]; [3]
  HC50 at 1 h: 620 µg/mL

## KLAKKLAKLAKLAKAL-NH2 [P159, reference compound]
BMKC
  LD50 BMKC: 140 µg/mL
H1299
  H1299 LD50: 74 µg/mL
HeLaS3
  HeLaS3 LD50: 275 µg/mL
MCF7
  LD50 MCF7: 61 µg/mL
PC3
  PC3 LD50: 145 µg/mL
SW480
  LD50 SW480: 140 µg/mL
WI38
  WI38 LD50: 82 µg/mL
In vitro [2]; [6]
  CC50 at 24 h: 82 µg/mL

## FAKKLAKKLKKLAKKLAK-NH2 [Shiva 10(1-18)AM]
BMKC
  LD50 BMKC: 66 µg/mL
MCF7
  LD50 MCF7: 45 µg/mL
SW480
  LD50 SW480: 63 µg/mL
In vitro [2]; [6]
  CC50 at 24 h: 101 µg/mL

## FAKKFAKKFKKFAKKFAKFAFAF-NH2 [compound 301]
In vitro [1]; [4]
  HC50 at 1 h: 10 µg/mL

## FALALKALKKA-NH2 [Flak 96H]
BMKC
  LD50 BMKC: > (> indicates greater than 1000)
H1299
  H1299 LD50: > (> indicates greater than 1000)
HeLaS3
  HeLaS3 LD50: > (> indicates greater than 1000)
MCF7
  LD50 MCF7: > (> indicates greater than 1000)
PC3
  PC3 LD50: > (> indicates greater than 1000)
SW480
  LD50 SW480: > (> indicates greater than 1000)
WI38
  WI38 LD50: > (> indicates greater than 1000)
WI38; WI38 normal lung fibroblast line
  LD50 WI38: > (> indicates greater than 1000)

## CC[C@H](C)[C@H](NC(=O)CN)C(=O)NCC(=O)N[C@@H](C)C(=O)N[C@H](C(=O)N[C@@H](CC(C)C)C(=O)N[C@@H](CCCCN)C(=O)N[C@H](C(=O)N[C@@H](CC(C)C)C(=O)N[C@H](C(=O)N[C@H](C(=O)NCC(=O)N[C@@H](CC(C)C)C(=O)N1CCC[C@H]1C(=O)N[C@@H](C)C(=O)N[C@@H](CC(C)C)C(=O)N[C@H](C(=O)N[C@@H](CO)C(=O)N[C@@H](Cc1c[nH]c2ccccc12)C(=O)N[C@H](C(=O)N[C@@H](CCCCN)C(=O)N[C@@H](CCCNC(=N)N)C(=O)N[C@@H](CCCCN)C(=O)N[C@@H](CCCNC(=N)N)C(=O)N[C@@H](CCC(N)=O)C(=O)N[C@@H](CCC(N)=O)C(N)=O)[C@@H](C)CC)[C@@H](C)CC)[C@@H](C)O)[C@@H](C)O)C(C)C)C(C)C [MELITTIIN]
BMKC
  LD50 BMKC: 18 µg/mL
H1299
  H1299 LD50: 25 µg/mL
HeLaS3
  HeLaS3 LD50: 35 µg/mL
MCF7
  LD50 MCF7: 9 µg/mL
PC3
  PC3 LD50: 13 µg/mL
SW480
  LD50 SW480: 23 µg/mL
WI38
  WI38 LD50: 16 µg/mL
In vitro [2]; [6]
  CC50 at 24 h: 16 µg/mL (≈ 5.62 µM)

## VAKLLAKALKKLL-NH2 [P506]
In vitro [1]; [3]
  HC50 at 1 h: 120 µg/mL

## VALALKALKKALKKLKKALKKAL-NH2 [P30]
WI38
  WI38 LD50: 93 µg/mL

## CC(C)C[C@H](NC(=O)[C@H](C)NC(=O)[C@H](CC(C)C)NC(=O)[C@H](C)NC(=O)[C@H](CC(C)C)NC(=O)[C@H](CCCCN)NC(=O)[C@H](C)NC(=O)[C@H](CC(C)C)NC(=O)[C@H](CCCCN)NC(=O)[C@H](CCCCN)NC(=O)[C@H](C)NC(=O)[C@H](CC(C)C)NC(=O)[C@H](CCCCN)NC(=O)[C@H](C)NC(=O)[C@H](CC(C)C)NC(=O)[C@H](CCCCN)NC(=O)[C@H](CCCCN)NC(=O)[C@H](C)NC(=O)[C@@H](N)C(C)C)C(N)=O [FLAK 25 AM V]
MCF7
  LD50 MCF7: 130 µg/mL
In vitro [2]; [6]
  CC50 at 24 h: 110 µg/mL (≈ 55.3 µM)

## VALALKALKKALKKLKKALKKAL-OH [HECATE AC V]
MCF7
  LD50 MCF7: 160 µg/mL
In vitro [2]; [6]
  CC50 at 24 h: 190 µg/mL

## VAKALKALLKALKAL-NH2 [P501, VAKALKALLKALKAL-NH2]
In vitro [1]; [3]
  HC50 at 1 h: 15 µg/mL

## FALLKALLKKAL-NH2 [Flak 961]
H1299
  H1299 LD50: 240 µg/mL
HeLaS3
  HeLaS3 LD50: 380 µg/mL
PC3
  PC3 LD50: 120 µg/mL
In vitro [2]; WI38 LD50, MTT, 24 hours with peptide, normal fibroblast line
  CC50 at 24 h: 270 µg/mL

## VALALKALKKL-NH2 [compound 180]
In vitro [1]; [4]
  HC50 at 1 h: 850 µg/mL
In vitro [2]; [5]
  CC50 at 24 h: 1000 µg/mL

## VAKALKALLKALKAL-NH2 [FLAK 17 CV]
MCF7
  LD50 MCF7: 23 µg/mL
In vitro [2]; [6]
  CC50 at 24 h: 26 µg/mL

## VALALKALKKLAKKLKKLAKKAL-NH2 [FLAK04 AM V]
MCF7
  LD50 MCF7: 84 µg/mL
In vitro [2]; [6]
  CC50 at 24 h: 95 µg/mL

## VAKFLAKFLKKAL-NH2 [compound 502]
In vitro [1]; [4]
  HC50 at 1 h: 100 µg/mL
In vitro [2]; [5]
  CC50 at 24 h: 64 µg/mL

## FAKKLAKKLKKLAKKLIGAVLKV-OH [SHIVA 11 [(1-16)ME(2-9]-COOH]
BMKC
  LD50 BMKC: 94 µg/mL
H1299
  H1299 LD50: 54 µg/mL
HeLaS3
  HeLaS3 LD50: 180 µg/mL
MCF7
  LD50 MCF7: 95 µg/mL
PC3
  PC3 LD50: 28 µg/mL
SW480
  LD50 SW480: 120 µg/mL
WI38
  WI38 LD50: 34 µg/mL
In vitro [2]; [6]
  CC50 at 24 h: 34 µg/mL

## VAKFLAKFLKKAL-NH2 [FLAK50 Q1V]
MCF7
  LD50 MCF7: 92 µg/mL
In vitro [2]; [6]
  CC50 at 24 h: 64 µg/mL

## VALALKALKKALKKLKKALKKAL-OH [compound 508]
In vitro [1]; [4]
  HC50 at 1 h: 70 µg/mL
In vitro [2]; [5]
  CC50 at 24 h: 190 µg/mL

## CC(C)C[C@H](NC(=O)[C@H](C)NC(=O)[C@H](CC(C)C)NC(=O)[C@H](C)NC(=O)[C@H](CC(C)C)NC(=O)[C@H](CCCCN)NC(=O)[C@H](C)NC(=O)[C@H](CC(C)C)NC(=O)[C@H](CCCCN)NC(=O)[C@H](CCCCN)NC(=O)[C@H](C)NC(=O)[C@H](CC(C)C)NC(=O)[C@H](CCCCN)NC(=O)[C@H](C)NC(=O)[C@H](CC(C)C)NC(=O)[C@H](CCCCN)NC(=O)[C@H](CCCCN)NC(=O)[C@H](C)NC(=O)[C@@H](N)Cc1ccccc1)C(N)=O [P36]
BMKC
  LD50 BMKC: 56 µg/mL
H1299
  H1299 LD50: 57 µg/mL
MCF7
  LD50 MCF7: 9 µg/mL
PC3
  PC3 LD50: 19 µg/mL
SW480
  LD50 SW480: 30 µg/mL
In vitro [1]; [3]
  HC50 at 1 h: 85 µg/mL
WI38
  WI38 LD50: 19 µg/mL
In vitro [2]; [6]
  CC50 at 24 h: 19 µg/mL (≈ 9.32 µM)

## VAKKFAKKFKKFAKKFAKFAFAF-NH2 [compound 503]
In vitro [1]; [4]
  HC50 at 1 h: 20 µg/mL
In vitro [2]; [5]
  CC50 at 24 h: 150 µg/mL

## MPKWKVFKKIEKVGRNIRNGIVKAGPAIAVLGEAKALG-OH [SB37COOH]
BMKC
  LD50 BMKC: 120 µg/mL
H1299
  H1299 LD50: 220 µg/mL
HeLaS3
  HeLaS3 LD50: 150 µg/mL
MCF7
  LD50 MCF7: 175 µg/mL
SW480
  LD50 SW480: 82 µg/mL
WI38
  WI38 LD50: 130 µg/mL
In vitro [2]; [6]
  CC50 at 24 h: 130 µg/mL

## VAKKLAKLAKKLLAL-NH2 [compound 505]
In vitro [1]; [4]
  HC50 at 1 h: 620 µg/mL
In vitro [2]; [5]
  CC50 at 24 h: 85 µg/mL

## VAKFLAKFLKKAL-NH2 [P502, VAKFLAKFLKKAL-NH2]
In vitro [1]; [3]
  HC50 at 1 h: 100 µg/mL

## VAKKFAKKFKKFAKKFAKFAFAF-NH2 [P503]
MCF7
  LD50 MCF7: 210 µg/mL
In vitro [1]; [3]
  HC50 at 1 h: 20 µg/mL
In vitro [2]; [6]
  CC50 at 24 h: 150 µg/mL
